Measurements: patent US8324188B2, “Combinations of ET-18-O-CH3and anti-cancer agents for the treatment of cancer” (priority 2006, dated 2012)
“And” between values parts separate entries of the source, which are not always exact repeats. Identical values can stand only once.

How the values were obtained:
HCC827 (FAS positive) = assay: WST-1 proliferation assay, HCC827; type: cell-based, human; settings: single agent, per experiment line
Experimental: (§1) 2000 cells were plated in each well of 96-well flat bottom plates, and incubated overnight at 37 °C in 5% CO2. The growth of plated cells was measured by adding […] of WST-1 reagent (Roche Applied Sciences, Germany) to 3 control wells and measuring the absorbance at 650 nm and at 450 nm, respectively, with a SpectraMax250 plate reader. […] After this incubation, VVST-1 reagent was added to the wells and OD650-OD450 values were calculated as before. six wells were assayed for each conditions and standard deviation was determined: all experiments were performed at least three times independently. […] DDP and GMZ were both purchased from Sigma-aldrich Corp., St. Louis, Mo., USA. The following cell lines were used: A549 (FAS negative), NCI-H460 (FAS positive), and HCC827 (FAS positive), all obtained from the ATTC, Rockville, Md., USA.

[1] = test system: LNCaP androgen-sensitive human prostate adenocarcinoma cells; assay: trypan blue dye exclusion, living LNCaP cells; type: cell-based
Experimental: FIG. 1. Depicts the in vitro effects of 1-O-octadecyl-2-O-methyl-glycero-3-phosphocholine (final concentration 10 μM), (ionizing) radiation (absorbed dose of 5 Gray units; indicated as “RT”), and a combination thereof on programmed cell death (apoptosis) and the survival rate of LNCaP androgen-sensitive human prostate adenocarcinoma cells. Apoptosis was determined using the Apo-ONE™ Homogenous Caspase-317 Assay, Promega, Inc., Madison, Wis., USA according to the manufacturers instructions. The percentage of living cancer cells was estimated by means of trypan blue dye exclusion as described (Freshney, R. I. (1994) Culture of Animal Cells: A Manual of Basic Technique. 3rd Ed. Wiley-Liss. New York. USA). The cells were exposed to radiation six hours after (FIG. 1A), concomitantly with (FIG. 1B), or six hours before administration of 1-O-octadecyl-2-O-methyl-glycero-3-phospho-choline (FIG. 1C). The caspase assay was performed 12 hours after exposure to radiation. The respective data shown represent the average of two independent experiments.
First, the in vitro effects of 1-O-octadecyl-2-O-methyl-glycero-3-phosphocholine, (ionizing) radiation, and a combination thereof on programmed cell death (apoptosis) and the survival rate of LNCaP androgen-sensitive human prostate adenocarcinoma cells were measured. The LNCaP cell line was established from a metastatic lesion of the adenocarcinoma. The cells were treated with a final concentration of 10 μM 1-O-octadecyl-2-O-methyl-glycero-3-phosphocholine and (ionizing) radiation corresponding to an absorbed dose of 5 Gray units.
Apoptosis was determined using the Apo-ONE™ Homogenous Caspase-3/7 Assay, Promega, Inc., Madison, VV1, USA according to the manufacturers instructions. The percentage of living tumor cells was estimated by means of trypan blue dye exclusion as described (Freshney, R. I. (1994) Culture of Animal Cells: A Manual of Basic Technique. 3rd Ed. Wiley-Liss. New York. USA)
The cells were exposed to radiation six hours after (FIG. 1A), concomitantly with (FIG. 1B), or six hours before administration of 1-O-octadecyl-2-O-methyl-glycero-3-phospho-choline (FIG. 1C). The caspase assay was performed 12 hours after exposure to radiation. The respective data shown represent the average of two independent experiments.

LN-229 = assay: WST-1 proliferation assay, LN-229; type: cell-based; settings: Homo sapiens
Experimental: 2000 cells were plated in each well of 96-well flat bottom plates, and incubated overnight at 37 °C in 5% CO2. The growth of plated cells was measured by adding […] of WST-1 reagent (Roche Applied Sciences, Germany) to 3 control wells and measuring the absorbance at 650 nm and at 450 nm, respectively, with a SpectraMax250 plate reader. If the OD650-OD450 values were above 0.5, the remainder of the plate was used for incubation with AP-121, other pharmacological agents or solvent control for 96 hours.
After this incubation, VVST-1 reagent was added to the wells and OD650-OD450 values were calculated as before. six wells were assayed for each conditions and standard deviation was determined: all experiments were performed at least three times independently. After elucidation of individual IC50 values for each compound, the simultaneous combination treatment of AP-121 and the chemotherapeutic agent at their IC50 ratio was performed; combination index (CI) was determined by Calcusyn software package (Biosoft, Ferguson, Mo.). Data were evaluated by calculating the means of the combination index (CI), where a CI of <0.3 indicates a strong synergistic effect, 0.3<CI<0.7 a synergistic effect, 0.7<CI<0.9 moderate synergy, 0.9<CI<1 additive effect and CI>1 antagonistic effect, respectively.
For the AP-121 cell proliferation drug combination measurements, the ED50 was determined for each drug. Six different concentrations of each drug were used in combinations index measurements and compared to +/− cells, and compared to controls without compound. Each combination was repeated 6 times at 2 different time points (24 and 96 hours), each of the above experiments was repeated 3 times to obtain valid results.

[2] = test system: androgen-insensitive LNCaP-Res cells; assay: apoptosis in LNCaP-Res cells; type: cell-based, human; settings: data not shown
T98G = assay: WST-1 proliferation assay, T98G; type: cell-based; settings: Homo sapiens
Experimental: AP-121 was prepared as 5 mM stock solution in distilled sterile water, Temozolomide (TMZ) (Haorui Pharma-Chem, Inc., Edison, N.J.) was prepared as 100 mM in sterile filtrated DMSO; Adriamycin (ADR) (Sigma) was prepared as 1 mM in distilled sterile water; Camptothecin (CTP) (Sigma) was prepared as 10 mM solution in 0.1 N NaOH; Tarceva (Proteinkinase, Germany) was prepared as 5 mM solution in sterile DMSO. All compound stocks were kept at −20° C. 2000 cells were plated in each well of 96-well flat bottom plates, and incubated overnight at 37 °C in 5% CO2. The growth of plated cells was measured by adding […] of WST-1 reagent (Roche Applied Sciences, Germany) to 3 control wells and measuring the absorbance at 650 nm and at 450 nm, respectively, with a SpectraMax250 plate reader. […] After this incubation, VVST-1 reagent was added to the wells and OD650-OD450 values were calculated as before. six wells were assayed for each conditions and standard deviation was determined: all experiments were performed at least three times independently. […] Six different concentrations of each drug were used in combinations index measurements and compared to +/− cells, and compared to controls without compound.

A549 (FAS negative) = assay: WST-1 proliferation assay, A549; type: cell-based, human; settings: single agent, per experiment line
Experimental: as §1

NCI-H460 (FAS positive) = assay: WST-1 proliferation assay, NCI-H460; type: cell-based, human; settings: single agent, per experiment line
Experimental: as §1

IC50 (HCC827 (FAS positive)): 2400 nM and 850 nM and 1600 nM
IC50 (A549 (FAS negative); A549): 6000 nM and 6900 nM
IC50 (A549 (FAS negative); Homo sapiens, A549, A549): 8000 nM
IC50 (NCI-H460 (FAS positive); Homo sapiens, NCI-H460, NCI-H460): 1500 nM
IC50 (NCI-H460 (FAS positive); NCI-H460): 1400 nM and 2000 nM
Structure (SMILES): CCCCCCCCCCCCCCCCCCOCC(COP(=O)([O-])OCC[N+](C)(C)C)OC (racemic) [AP-121, 1-O-octadecyl-2-O-methyl-glycero-3-phosphocholine]
survival of the cells ([1]; 10 μM administered six hours after radiation (5 Gray), combined treatment (FIG. 1C)): about 40%
survival of the tumor cells ([1]; 10 μM administered six hours prior to radiation (5 Gray), combined treatment, untreated controls about 85% (FIG. 1A)): about 45%
survival rate ([1]; 10 μM concomitant with radiation (5 Gray), untreated controls about 86% (FIG. 1B)): about 55%
survival rate ([1]; 10 μM, individual chemical treatment (FIG. 1B)): about 50%
survival rate ([1]; 10 μM, individual chemical treatment (FIG. 1C)): about 45%
survival rate ([1]; 10 μM, individual treatment without radiation (FIG. 1A)): about 60%
IC50 (LN-229): 4300 nM
apoptosis in CHEM+RT treated cells [2]: enhancement of apoptosis
IC50 (T98G): 4100 nM
